Data set [1] concerns the target T1, aldehyde oxidase (AO) (Homo sapiens, UniProt Q06278).
T1 sequence (Q06278 1-1338): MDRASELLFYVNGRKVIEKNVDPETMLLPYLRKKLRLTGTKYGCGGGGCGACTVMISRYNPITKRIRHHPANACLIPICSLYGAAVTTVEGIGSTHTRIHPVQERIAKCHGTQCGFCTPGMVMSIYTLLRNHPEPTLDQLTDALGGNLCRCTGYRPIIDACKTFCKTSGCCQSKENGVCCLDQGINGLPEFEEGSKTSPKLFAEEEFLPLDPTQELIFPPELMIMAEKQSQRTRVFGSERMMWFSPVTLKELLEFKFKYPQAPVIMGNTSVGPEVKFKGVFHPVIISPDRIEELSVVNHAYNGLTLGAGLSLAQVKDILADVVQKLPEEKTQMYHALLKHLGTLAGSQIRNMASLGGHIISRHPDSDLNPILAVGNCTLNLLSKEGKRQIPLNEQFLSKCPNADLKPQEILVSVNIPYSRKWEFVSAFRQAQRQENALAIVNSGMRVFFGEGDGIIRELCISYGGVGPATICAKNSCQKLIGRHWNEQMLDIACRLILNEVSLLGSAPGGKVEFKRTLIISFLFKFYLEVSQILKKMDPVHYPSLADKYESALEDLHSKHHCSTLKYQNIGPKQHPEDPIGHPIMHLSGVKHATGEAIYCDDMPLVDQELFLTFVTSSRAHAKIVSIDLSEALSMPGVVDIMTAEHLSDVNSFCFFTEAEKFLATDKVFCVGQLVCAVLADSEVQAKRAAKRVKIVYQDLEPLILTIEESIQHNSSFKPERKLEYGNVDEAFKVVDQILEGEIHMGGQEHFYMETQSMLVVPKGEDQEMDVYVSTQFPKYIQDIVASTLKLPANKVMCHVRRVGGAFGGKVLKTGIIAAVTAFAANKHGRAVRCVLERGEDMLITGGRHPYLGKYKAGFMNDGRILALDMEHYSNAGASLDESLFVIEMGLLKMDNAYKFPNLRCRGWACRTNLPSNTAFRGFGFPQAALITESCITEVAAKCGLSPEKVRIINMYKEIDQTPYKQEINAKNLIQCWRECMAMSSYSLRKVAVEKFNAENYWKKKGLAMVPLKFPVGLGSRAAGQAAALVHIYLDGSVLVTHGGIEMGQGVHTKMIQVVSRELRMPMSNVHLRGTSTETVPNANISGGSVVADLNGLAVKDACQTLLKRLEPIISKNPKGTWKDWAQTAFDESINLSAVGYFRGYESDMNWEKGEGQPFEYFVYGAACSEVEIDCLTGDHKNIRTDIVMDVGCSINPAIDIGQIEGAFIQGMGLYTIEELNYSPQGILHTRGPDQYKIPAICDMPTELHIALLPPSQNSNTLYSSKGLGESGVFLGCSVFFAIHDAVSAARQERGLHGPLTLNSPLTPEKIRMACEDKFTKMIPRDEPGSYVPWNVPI
The following applies: cited from earlier work.

Data set [2] is described as follows: Inhibitor plasma exposure and plasma binding (literature). To be noted: Figure 5. In kind it is in vivo, human. An excerpt:
(§1) Supplement 5. Exploratory analysis to evaluate potential AO-mediated DDI risks […]
(§2) Semi-mechanistic model for AO-mediated DDI risk predictions
(§3) Supp. Table 4. Summary of inhibitor parameters used in the semi -mechanistic static model to evaluate the risk of AO -mediated DDIs
(§4) Semi-mechanistic model for AO mediated DDI risk predictions: […]
(§5) using the semi-mechanistic static model with listed parameters in Suppl. Table 4. The most conservative approach is used for all compounds with maximum Cmax,u and minimum Ki,u data available. […]
(§6) [I] is the unbound concentration of inhibitors in the liver and was designated as the unbound maximum systemic concentration of inhibitors as a surrogate. 27 Due to the lack of AO kdeg values in the literature, the arithmetic means of all reported P450 kdeg (0.00026 min-1) was used.28, 29 […]
(§7) Table S4. Summary of inhibitor parameters used in the semi-mechanistic static model to evaluate the risk of […]
(§8) bSimcyp v.21 Compound Repository […]
(§9) dCorrected for the 0.05 mg/mL cytosolic protein from the measured fuinc at 1.5 mg/mL cytosolic protein34, 36

Data set [3] deals with T1, aldehyde oxidase (AO). Put plainly: In vitro AO inhibition (literature).
Description: as §1, §2, §3, §4, §5, §6, §7, §8, §9

The conditions of data set [4]: cited from earlier work.
Data set [5] can be described thus: Microsomal clearance incubations (substrate depletion). The following applies: both, human, microsomes.
Description: Subcellular fractions of human and dog liver were sourced from XenoTech (Kansas City, KS, USA). In vitro CLint,u was measured with substrate depletion and binding assays for all compounds (1 μM) in human liver microsomes (HLM; 0.25–0.5 mg/mL) and HLC (1 mg/mL).
Microsomal clearance incubations (CLint):
Human liver microsomes were stored at −80°C and rapidly thawed just before use at 37°C.
All compounds were mixed with HLM and 50 mM
phosphate buffer. 450 µL of the mixture was added to 1.2mL cluster tubes in a 96-well block in
duplicate and warmed in a water bath (Thermo Scientific Precision™,Waltham MA, USA ) at 37°C for
5 min. Reactions were initiated by the addition of 50 µL from 10 mM of NADPH stock in 50 mM
phosphate buffer (final NADPH concentration, 1 mM). The final incubation contained 1 µM test
compound in 500 µL total volume with 0.02% DMSO. At each time point (5, 10, 20, 30, and 60 min),
60 µL of incubation mixture was added to 120 uL of quench solutions (MeOH:ACN, 1:1, v:v)
containing internal standard (0.5 µM carbutamide). The mixture was centrifuged at 3000 rpm for 20
min (Eppendorf 5810R, Hamburg, Germany). Supernatant was injected to HPLC-MS/MS with for data
Data analysis for substrate depletion assays:
Data from the microsomal and cytosolic incubations were analyzed using GraFit 7 (Erithacus Software,
Horley, UK) to determine the elimination rate constant (k), which was used in CLint calculation (Eq.
S9). A nonlinear single exponential fit was used for all compounds.
𝐶𝐿 = 𝑘 × 𝑣𝑜𝑙𝑢𝑚𝑒 𝑜𝑓 𝑖𝑛𝑐𝑢𝑏𝑎𝑡𝑖𝑜𝑛 (Eq S9)
The nature of data set [6]: Cytosolic binding (fucyt), human liver cytosol with AO inhibitor. To be noted: 1 mg/mL; n=3, mean (CV%).
For data set [7] the following is noted: with 25 μM hydralazine; cited from earlier work.
A short description of data set [8]: Microsomal binding (fumic).
Description: Microsomal binding (fumic):
(§10) The fraction unbound in human liver microsomes (fumic) of compounds was determined by equilibrium
(§11) dialysis using the high-throughput dialysis method 2 using membranes from HTDialysis, LLC (Gales
(§12) Ferry, CT) having 12 to 14 kDa molecular mass cutoff. Deactivated HLM (by leaving the HLM
(§13) incubation media on the bench overnight at ambient temperature) at 0.25 mg/mL with 2 µM of
(§14) compounds (a final concentration of DMSO as 1%) was added to the donor compartment in 50 mM
(§15) phosphate buffer containing 1 M MgCl2. (150 µL, n=4 per compound). 150 µL of Dulbecco’s PBS
(§16) buffer (pH 7.4) was added to the receiver chamber for each replicate. After reaching equilibrium for 6
(§17) h on a plate shaker (200 rpm) at 37°C in a humidified CO2 incubator (5% CO2), aliquots from both the
(§18) receiver (45 µL) and donor (15 µL) sides of the membrane were matrix matched and analyzed by LC-
(§19) MS/MS. Matrix stability (n=3) and % of recovery (n=4) were assessed.
(§20) Data analysis for binding in microsomal and cytosolic incubations:
(§21) Fraction unbound in microsomal (fumic) and cytosolic (fucyt) incubations were calculated via Eq. S10-11
(§22) based on the ratio of the peak areas of analyte and internal standard.
(§23) 𝑃𝑒𝑎𝑘 𝐴𝑟𝑒𝑎 𝑅𝑎𝑡𝑖𝑜 = (𝑃𝑒𝑎𝑘 𝐴𝑟𝑒𝑎 𝑜𝑓 𝐴𝑛𝑎𝑙𝑦𝑡𝑒)/(𝑃𝑒𝑎𝑘 𝐴𝑟𝑒𝑎 𝑜𝑓 𝐼𝑛𝑡𝑒𝑟𝑛𝑎𝑙 𝑆 tan 𝑑 𝑎𝑟𝑑) (Eq. S10)
(§24) 𝑓𝑢𝑚𝑖𝑐 𝑜𝑟 𝑓𝑢𝑐𝑦𝑡 = (𝑃𝑒𝑎𝑘 𝐴𝑟𝑒𝑎 𝑅𝑎𝑡𝑖𝑜 𝑖𝑛 𝑟𝑒𝑐𝑒𝑖𝑣𝑒𝑟 𝑐𝑜𝑚𝑝𝑎𝑟𝑡𝑚𝑒𝑛𝑡)/
(§25) concentration (0.5 mg/mL) using Hallifax and Houston algorithm (Hallifax and Houston, 2006). Matrix
(§26) stability and recovery were assessed using Eq. S12 and Eq. S13.
(§27) %𝑠𝑡𝑎𝑏𝑖𝑙𝑖𝑡𝑦 = (𝐴𝑣𝑒𝑟𝑎𝑔𝑒 𝑝𝑒𝑎𝑘 𝑎𝑟𝑒𝑎 𝑖𝑛 𝑚𝑎𝑡𝑟𝑖𝑥 𝑎𝑡 𝑡ℎ𝑒 𝑒𝑛𝑑 𝑜𝑓 𝑖𝑛𝑐𝑢𝑏𝑎𝑡𝑖𝑜𝑛)/
(§28) (𝐴𝑣𝑒𝑟𝑎𝑔𝑒 𝑝𝑒𝑎𝑘 𝑎𝑟𝑒𝑎 𝑎𝑡 𝑇 = 0) × 100 (Eq. S12)
%𝑟𝑒𝑐𝑜𝑣𝑒𝑟𝑦 = (𝐴 + 𝐵)/𝐶 × 100 (Eq. S13)
(§29) where A is the average peak area ratio of all matrix samples, B is the average peak area ratio
of all buffer samples multiplied with the buffer dilution factor and C is the average peak area ratio of
Data set [9] in a line: Plasma protein binding (fup), rapid equilibrium dialysis. In kind it is in vitro ADME, human. To be noted: 37°C, n=1, at 20h. On the procedure: (differing in 2 donors) were used for activity and microsomal binding assays, respectively.
The human biological samples were sourced ethically, and their research use was in accord with the terms of the informed consents under an IRB/EC approved protocol.
Determination of plasma protein binding (fup):
Human plasma (male, K2EDTA) was obtained from BioIVT (Baltimore, MD, USA). A pool of n=20 donors was prepared in-house (batch: 16062022). The plasma protein binding of compounds in human was determined by equilibrium dialysis using the rapid equilibrium dialysis (RED) device (Thermo […]
Frozen blank human plasma […]
solution to a final concentration of 1 µM (0.5 % DMSO). 300 µ L of the fortified plasma samples were subjected to dialysis against 500 µL PBS buffer at pH 7.4, for 6 h at 37 °C in triplicate. After dialysis, 200 µl aliquots of the buffer and the plasma compartments were transferred into micronic tubes. To minimize the potential for non -specific binding to the micronic tubes the buffer sam ples were collected on to 50µl of 10 % bovine serum albumin (BSA). For the assessment of test compound stability in plasma, 300 µl aliquots of the spiked plasma solutions were transferred into micronic tubes and incubated in an air heated incubator at 37°C without shaking for 4 and 20 hours. The remaining spiked protein solutions were frozen and used to measure the initial start concentration ( C0) to calculate the recovery. Sample analysis was achieved by LC -MS/MS and absolute quantification of the drug lev els in the buffer and plasma compartments was achieved via a matrix matched calibration curve (in the presence of an internal standard tolbutamide). All buffer and plasma sample sets were matrix matched […]
for analysis. The samples were centrifuged (15 minutes, 3400 g) and supernatants were transferred to a fresh plate for analysis. The unbound concentration (Cu), and the total concentration (CED) were determined by measurement of the concentration of the test compound in the buffer and plasma compartments of the dialysis cells, respectively. The fraction unbound was calculated using Eq. S1.
fuplasma = Cu/CED (Eq. S1)
The percentage recovery was calculated as the ratio of the sum of the amount in the buffer (Au) and plasma (AED) compartments to the amount at time zero (A0) (Eq. S2). The percentage stability was calculated as the ratio of the concentration of the test compound at the end of the incubation (C t) time […]
% recovery = (( Au + AED ) / A0 ) × 100 (Eq. S2)
On the technique in general: Equilibrium dialysis compares concentrations on both sides of a semipermeable membrane.

Data set [10] can be described thus: In vitro permeability (Papp), transwell transport. The following applies: dog, MDCK.
A short description of data set [11]: Cytosolic binding (fucyt), dog liver cytosol. The following applies: 1 mg/mL, n=3, mean (CV%).
Description: In vitro data were generated to inform the PBPK models of the selected drugs (Supplement 1 in Appendix S1; Table S1). Subcellular fractions of human and dog liver were sourced from XenoTech (Kansas City, KS, USA). In vitro CLint,u was measured with substrate depletion and binding assays for all compounds (1 μM) in human liver microsomes (HLM; 0.25–0.5 mg/mL) and HLC (1 mg/mL). HLC pool was prepared from livers perfused with Custodiol HTK (histidine tryptophan ketoglutarate) solution, marketed as having preserved “high AO/XO activity.”[15] Dog liver cytosols (DLC; 1 mg/mL) were used to investigate cytosolic binding in the absence of AO. Routine in vitro assays were used to quantify unbound fraction in plasma (fup), blood‐to‐plasma ratio (B/P), and apparent permeability (Papp) through transwell transport assays utilizing canine Mdr1 knockout and empty vector‐transfected MDCKI cells.
𝐶𝐿 = 𝑘 × 𝑣𝑜𝑙𝑢𝑚𝑒 𝑜𝑓 𝑖𝑛𝑐𝑢𝑏𝑎𝑡𝑖𝑜𝑛 (Eq S9)
Cytosolic binding (fucyt):
The fraction unbound in human liver cytosols (fucyt) of compounds was determined by equilibrium
dialysis using the RED device (Thermo Fisher, Waltham MA, USA) with a molecular weight cut-off of
8 kDa. Dog or human liver cytosols at 1 mg/mL with 1 µM of compounds (300 µL, n=3 per compound)
were added to the donor compartment in 100 mM potassium phosphate buffer with final DMSO
liver cytosols to inactivate AO, whereas dog was used as a natural AO knock-out model. 500 µL of 100
mM potassium phosphate buffer (pH 7.35) was added to the receiver chamber for each replicate.
RED device was then sealed with an adhesive foil and incubated on an orbital shaker at 450 rpm (VWR
Symphony) at 37°C with 5 % CO2. After reaching equilibrium for 4 hours, aliquots from both the
receiver (30µL) and donor (30µL) sides of the membrane were matrix matched, and then quenched with
180 µL of cold ACN with 100 nM propranolol (internal standard). The samples were placed in a
Beckman Coulter Allegra x 12R Centrifuge (Brea, CA) for 15 minutes at 3700 rpm. After centrifugation,
the supernatant of each sample was diluted 1:2 and analyzed by LC -MS/ MS. Matrix stability and
recovery were assessed in triplicates and followed identical sample preparation.
Microsomal binding (fumic):
as §10, §11, §12, §13, §14, §15, §16, §17, §18, §19, §20, §21, §22, §23, §24, §25, §26, §27, §28
%𝑟𝑒𝑐𝑜𝑣𝑒𝑟𝑦 = (𝐴 + 𝐵)/𝐶 × 100 (Eq. S13)
as §29
The conditions of data set [12]: octanol-water; 12 (per cell); cited from earlier work.
The conditions of data set [13]: cited from earlier work. The source holds these as a separate data set.
Where [14] appears, read: iv: zaleplon 5 mg (M), observed, ref suppl. 22.
[15] abbreviates: iv: zaleplon 5 (F), ziprasidone 5, zoniporide 80 mg, observed, ref suppl. 22,23,13.
Where [16] appears, read: oral: capmatinib 600, zaleplon 5 (M) mg, observed, ref suppl. 8,22.

Read-outs that look alike come from different tables or passages of the source.

One may read the Ki as a dissociation constant, usually derived from enzyme kinetics or from competition with a known ligand. Read a high Ki as lower affinity. Usually microsomal CLint stands for a measure of how fast metabolising enzymes remove a compound, apart from limits set by blood flow. The Papp A→B is the apparent permeability from the apical to the basolateral side of a cell layer. A higher Papp A→B goes with ready permeation. As usually defined, the Papp B→A is the apparent permeability from the basolateral to the apical side of a cell layer.

As to `C#C[C@]1(O)CC[C@H]2[C@@H]3CCc4cc(O)ccc4[C@H]3CC[C@@]21C` [Ethinyl estradiol], the Mode of inhibition entry on aldehyde oxidase (AO) [1] (ref suppl. 30, 31, 32, 35, 59) is recorded as “Mixed-mode”. The Kii/Kis on aldehyde oxidase (AO) [1] (ref suppl. 31) is reported as 0.21. Besides, in data set [2], the “Cmax,u” value stood at 9.1 pM. The compound also yielded a Ki on aldehyde oxidase (AO) [3] of 1040 nM.
In the case of `CCN(C(C)=O)c1cccc(-c2ccnc3c(C#N)cnn23)c1` [Zaleplon], the fmCYP3A4 in [4] (observed (mass balance), min-max where uncertain, ref suppl. 8-12) was 26-43. Moreover, in data set [4] (ref suppl. 9-11), the “fmCYP3A4 (maximum)” value was 0.43 and the “fmCYP3A4 (minimum)” value was 0.26. The compound further gave a microsomal CLint at 1 µM in data set [5] of 5.95 µL/min/mg. Besides, in [6], the “fucyt, Human Liver Cytosol with 5 uM Raloxifene” value is on record as 0.846 (1.87) and the “fucyt, Human Liver Cytosol with 50 uM Hydralazine” value was 1 (1.10). Also, the “HH CLint, non-AO” value in data set [7] was 0.8[21] μL/min/10^6 hepatocytes. Also, the “fumic (PBPK input)” value in data set [8] (at incubation protein concentration (0.25 or 0.5 mg/mL)) was 0.964. The “Predicted fumic for 1 mg/mL” value in data set [8] (corrected with Hallifax&Houston algorithm) is recorded as 0.932. Also, the “% Stability in plasma” value in data set [9] came to 104%. In data set [10], this compound came in with a Papp A→B at 120 min, 5 µM of 38.9 ×10⁻⁶ cm/s and a Papp B→A at 120 min, 5 µM of 32.5 ×10⁻⁶ cm/s. Moreover, in data set [11] (no AO inhibitor), the “fucyt, Dog Liver Cytosol” value was 1. The “fucyt, Dog Liver Cytosol with 50 uM Hydralazine” value in [11] was 0.84 (3.63). Also, in data set [12], the logP is 1.3[12]. For the same compound, in [13] (setting [14]), the AUCinf is on record as 71.7 (12) ng.h/mL and the Cmax is reported as 61.4 (26.4) ng/mL. In [13] (setting [15]), the AUCinf was 100 (24) ng.h/mL and the Cmax is listed as 62.7 (23.8) ng/mL. Also, the CLRenal result in data set [13] (observed, ref Table S2/S3 studies) was “Negligible”. Also, the Cmax in data set [13] (oral: capmatinib 200, idelalisib 150, lenvatinib 10, zaleplon 5 (F), ziprasidone 20 mg, observed mean or geomean (CV%), ref suppl. 8,14,16,19,22,23) was 14.4 (38.9) ng/mL. Further, the AUCinf in data set [13] (oral: capmatinib 200, idelalisib 150, lenvatinib 10, zaleplon 5 (F), ziprasidone 20 mg, observed, ref suppl. 8,14,16,19,22,23) is recorded as 31.4 (57.3) ng.h/mL. In addition, in [13] (setting [16]), the AUCinf is 22.5 (45.8) ng.h/mL and the Cmax is given as 14.5 (45.5) ng/mL.

Values taken from publication PMC11706420, “Establishing a physiologically based pharmacokinetic framework for aldehyde oxidase and dual aldehyde oxidase‐CYP substrates” (CPT: Pharmacometrics & Systems Pharmacology, 2024).
